From US7829283B2, “Methylation of estrogen receptor alpha and uses thereof” (John Wayne Cancer Institute, priority 2006, dated 2010)

Tests used:
[1] = tested on: ER-α mRNA expression in MCA melanoma cell line; test: ER-α mRNA re-expression by RT-PCR in melanoma cell lines after 5-Aza and TSA treatment; format: cell-based, human; settings: data not shown
Description: To confirm down-regulation of ER-α expression by hypermethylation of the ER-α promoter region, cell lines were treated with the DNA-demethylating agent, 5-Aza, and the HDAC inhibitor, TSA. In combination with 5-Aza treatment, TSA can up-regulate the mRNA expression of genes silenced due to hypermethylation (26, 27). The MCF-7 cell line was used as an ER-α positive control and the MCA cell line was used as an ER-α negative control. Cell lines were maintained in RPMI 1640 medium supplemented with heat-inactivated 10% fetal bovine serum (FBS), penicillin G, and streptomycin (100 U/ml). Cells were treated with 1000 nM TSA for 24 hr (Wako Biochemicals, Osaka, Japan) and 1000 nM 5-Aza for five days (Sigma Chemical Co., St Louis, Mo.). After treatment with 5-Aza and TSA, melanoma cells were washed with phosphate buffered saline (PBS) and harvested with 0.25% trypsin-0.53 mM EDTA (Gibco, Auckland, N.J.). The mRNA expression level of ER-α was assessed by RT-PCR before and after 5-Aza and TSA treatment. […] The RNA was quantified and assessed for purity using ultraviolet spectrophotometry and the RIBOGreen detection assay (Molecular Probes, Eugene, Oreg.). The expression of mRNA for GAPDH, an internal reference housekeeping gene, was assessed by RT-PCR on all RNA samples to verify the integrity of RNA and to indicate equal loading of PCR products for gel electrophoresis. […]

[2] = tested on: advanced melanoma; settings: chemotherapy and BC regimens; cited from earlier work
[3] = tested on: melanoma cells; settings: in vitro experiments; cited from earlier work

Row | Compound | ER-α mRNA expression, single agent versus need for the second agent [1] | overall survival in advanced melanoma [2] | growth inhibition of melanoma cells in vitro [3]
1 | Nc1ncn([C@H]2C[C@H](O)[C@@H](CO)O2)c(=O)n1 [5-Aza, 5-aza-2-deoxycytidine] | did not significantly increase |  | 
2 | CC(/C=C/C(=O)NO)=C\[C@@H](C)C(=O)c1ccc(N(C)C)cc1 [TSA, trichostatin A] | necessary to significantly increase expression above pretreatment levels |  | 
3 | CC/C(=C(\c1ccccc1)c1ccc(OCCN(C)C)cc1)c1ccccc1 [tamoxifen] |  | has not been shown to significantly improve overall survival | effective growth inhibitor
